A value given as a limit tells only on which side of the number the result lay.

In the assay the test system is 3D7 P. falciparum strain. The assay can be described thus: P. falciparum 3D7 parasite proliferation assay (SYBR Green). Format: cell-based. Particulars: Plasmodium falciparum, Erythrocyte; 3D7 P. falciparum infected human erythrocytes, 72 hours, SYBR Green fluorescence; read-out: Pf3D7 Activity. An outline of the steps: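 3D7-infected O+ human erythrocytes (0.3% parasitemia, 2.5% hematocrit) were exposed to compound for 72 hours at 37 °C under 93% N2/4% CO2/3% O2. After overnight lysis with SYBR Green, fluorescence (ex 425/em 530 nm) gave parasite DNA content. EC50 was calculated against DMSO.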
For the compound `Cc1c(-c2cncc(C(=O)NCC(C)(C)N)n2)[nH]c2ccc(OC(F)(F)F)cc12` [Example 5, N-(2-amino-2-methylpropyl)-6-(3-methyl-5-(trifluoromethoxy)-1H-indol-2-yl)pyrazine-2-carboxamide], the EC50 is less than 10 nM.

On to `Cc1c(-c2cncc(C(=O)NCC(C)(C)N)n2)[nH]c2ccc(S(F)(F)(F)(F)F)cc12` [Example 3, N-(2-amino-2-methylpropyl)-6-(3-methyl-5-(pentafluoro-λ^6-sulfaneyl)-1H-indol-2-yl)pyrazine-2-carboxamide], for which the EC50 was less than 10 nM.

On to `Cc1c(-c2cncc(C(=O)NCCCN)n2)[nH]c2ccccc12` [Example 90, N-(3-aminopropyl)-6-(3-methyl-1H-indol-2-yl)pyrazine-2-carboxamide], for which the EC50 is more than 100 nM.

`Cc1c(-c2cncc(C(=O)NCC(N)C3CC3)n2)[nH]c2cc(Cl)c(F)cc12` (centres unmarked) [Example 79, N-(2-amino-2-cyclopropylethyl)-6-(6-chloro-5-fluoro-3-methyl-1H-indol-2-yl)pyrazine-2-carboxamide]: the EC50 fell in the range of 10 to 100 nM.

For the compound `CC(C)(N)CNC(=O)c1cncc(-c2[nH]c3ccccc3c2Cl)n1` [Example 49, N-(2-amino-2-methylpropyl)-6-(3-chloro-1H-indol-2-yl)pyrazine-2-carboxamide], the EC50 fell in the range of 10 to 100 nM.

As for `Cc1c(-c2cncc(C(=O)NC3CCNCC3)n2)[nH]c2ccccc12` [Example 93, 6-(3-methyl-1H-indol-2-yl)-N-(piperidin-4-yl)pyrazine-2-carboxamide], the EC50 was more than 100 nM.

On to `Cc1c(-c2cncc(C(=O)NCC3(N)CC3)n2)[nH]c2cc(Cl)c(F)cc12` [Example 81, N-((1-aminocyclopropyl)methyl)-6-(6-chloro-5-fluoro-3-methyl-1H-indol-2-yl)pyrazine-2-carboxamide], for which the EC50 was in the range of 10 to 100 nM.

In the case of `Cc1c(-c2cncc(C(=O)NC34CC(N)(C3)C4)n2)[nH]c2ccc(OC(F)(F)F)cc12` [Example 64, N-(3-aminobicyclo[1.1.1]pentan-1-yl)-6-(3-methyl-5-(trifluoromethoxy)-1H-indol-2-yl)pyrazine-2-carboxamide], the EC50 was 10 to 100 nM.

On to `Cc1c(-c2cncc(C(=O)NCC(C)(C)N)n2)[nH]c2ccc(S(C)(=O)=O)cc12` [Example 75, N-(2-Amino-2-methylpropyl)-6-(3-methyl-5-(methylsulfonyl)-1H-indol-2-yl)pyrazine-2-carboxamide], for which the EC50 is more than 100 nM.

As for `Cc1c(-c2cncc(C(=O)NCCN)n2)[nH]c2ccccc12` [Example 86, N-(2-aminoethyl)-6-(3-methyl-1H-indol-2-yl)pyrazine-2-carboxamide], the EC50 lay in the range of 10 to 100 nM.

Regarding `Cc1c(-c2cncc(C(=O)NCC(C)(C)N)n2)[nH]c2c(F)c(Cl)ccc12` [Example 4, N-(2-amino-2-methylpropyl)-6-(6-chloro-7-fluoro-3-methyl-1H-indol-2-yl)pyrazine-2-carboxamide], the EC50 is less than 10 nM.

As to `Cc1c(-c2cncc(C(=O)N[C@H]3CC[C@H](N)CC3)n2)[nH]c2ccccc12` [Example 97, N-((1r,4r)-4-aminocyclohexyl)-6-(3-methyl-1H-indol-2-yl)pyrazine-2-carboxamide], the EC50 is more than 100 nM.

With `Cc1c(-c2cncc(C(=O)N(C)CC(C)(C)N)n2)[nH]c2ccccc12` [Example 66, N-(2-amino-2-methylpropyl)-N-methyl-6-(3-methyl-1H-indol-2-yl)pyrazine-2-carboxamide], the EC50 is more than 100 nM.

For `COc1cccc2cc(-c3cncc(C(=O)NCC(C)(C)N)n3)[nH]c12` [Example 44, N-(2-amino-2-methylpropyl)-6-(7-methoxy-1H-indol-2-yl)pyrazine-2-carboxamide], the EC50 is more than 100 nM.

As to `CC(C)(N)CNC(=O)c1cncc(-c2cc3cc(F)cc(F)c3[nH]2)n1` [Example 24, N-(2-amino-2-methylpropyl)-6-(5,7-difluoro-1H-indol-2-yl)pyrazine-2-carboxamide], the EC50 lay within 10 to 100 nM.

As to `CC(C)(N)CNC(=O)c1cncc(-c2cc3cc(Cl)cc(F)c3[nH]2)n1` [Example 13, N-(2-amino-2-methylpropyl)-6-(5-chloro-7-fluoro-1H-indol-2-yl)pyrazine-2-carboxamide], the EC50 was 10 to 100 nM.

Take `CC(C)(N)CNC(=O)c1cncc(-c2[nH]c3ccc(OC(F)(F)F)cc3c2Cl)n1` [Example 106, N-(2-Amino-2-methylpropyl)-6-(3-chloro-5-(trifluoromethoxy)-1H-indol-2-yl)pyrazine-2-carboxamide]: the EC50 was less than 10 nM.

Consider `CC(C)(N)CNC(=O)c1cncc(-c2cc3cc(Cl)ccc3[nH]2)n1` [Example 19, N-(2-amino-2-methylpropyl)-6-(5-chloro-1H-indol-2-yl)pyrazine-2-carboxamide], for which the EC50 lay within 10 to 100 nM.

Turning to `Cc1c(-c2cncc(C(=O)NCC3(N)CCC3)n2)[nH]c2ccc(OC(F)(F)F)cc12` [Example 58, N-((1-aminocyclobutyl)methyl)-6-(3-methyl-5-(trifluoromethoxy)-1H-indol-2-yl)pyrazine-2-carboxamide], the EC50 is less than 10 nM.

`Cc1c(-c2cncc(C(=O)NCC(C)(C)N)n2)[nH]c2cc(Cl)c(F)cc12` [Example 1, N-(2-amino-2-methylpropyl)-6-(6-chloro-5-fluoro-3-methyl-1H-indol-2-yl)pyrazine-2-carboxamide]: the EC50 is less than 10 nM.

(Values after patent publication US20250197376A1, “PYRAZINE AMIDE DERIVATIVES” (Novartis AG, priority 2022, published 2025).)
